Experimental data: US20140100248A1, “Novel Heterocyclic Compounds as Modulators of Sphingolipid Signaling and Uses Thereof” (UNIVERSITÄT BERN, priority 2011, published 2014)

Key:
[1] = tested on: breast cancer cell lines (MCF-7, MDA-MB-231 and Sk-Br-3) and colon cancer cell lines (HCT-116 and SW620); conditions: cited from earlier work; for growth inhibition: Nagaoka et al. 2008, in the concentration tested
MCF-7 cells = conditions: Nagaoka et al. 2008; cited from earlier work
[2] = tested on: p42/44-MAPK phosphorylation in renal mesangial cells; experiment: MAPK/ERK (p42/44) phosphorylation in renal mesangial cells, Western blot; format: cell-based, rat; conditions: for effect on ST-968-induced p42/44 activation: pretreatment with pertussis toxin 100 ng/ml 16 h, or VPC23019 10 μM or W146 10 μM 30 min, then ST-968 1 μM 10 min; for agonistic potential on S1P receptors: concluded from MAPK/ERK activation and antagonist experiments; for p42/44 phosphorylation (p42/44-MAPK activity): rat renal mesangial cells, stimulation for 10 min
Method: (A+B): Confluent mesangial cells were pretreated for 16 h with pertussis toxin (100 ng/ml), or for 30 min with vehicle (−), VPC23019 (10 μM) and W146 (10 μM) prior to stimulation for 10 min with either vehicle (Co) or ST-968 (1 μM). (C): Cells were stimulated for 10 min with either vehicle (Co) or the indicated concentrations (in μM) of S1P and ST-1071. Thereafter, cell lysates containing 30 μg of protein were separated by SDS-PAGE, transferred to nitrocellulose and subjected to Western blot analysis using antibodies against phospho-p42/44 (dilution of 1:1000; A, upper panel) and total p42/ERK2 and p44/ERK1 (dilution 1:6000 each; B, lower panel). Blots were stained by the ECL method according to the manufacturer's recommendation. Bands corresponding to the phospho-p42/44 and total ERKs were densitometrically scanned and evaluated (B). Results in B are depicted as % of ST-968 stimulation and are means ±S.D. (n=3).
(§1) Rat renal mesangial cells were isolated, characterized, and cultured as previously described (Pfeilschifter et al., 1984). For the experiments performed in this study, cells between passages 8-30 were used. The human endothelial cell line EA.hy 926 was cultured in RPMI medium containing 10% (v/v) fetal bovine serum, 10 mM Hepes, pH 7.4, 100 units/ml penicillin, and 100 μg/ml streptomycin. HCT-116 colon carcinoma cells were cultured in McCoy medium including 10% (v/v) fetal bovine serum, 100 units/ml penicillin, and 100 μg/ml streptomycin. Prior to stimulation, all cells were rendered quiescent for 24 h in DMEM including 0.1 mg/ml of fatty acid-free bovine serum albumin (BSA).
(§2) Confluent mesangial cells were stimulated as indicated in the figure legends in Dulbecco's modified Eagle medium (DMEM) supplemented with 0.1 mg/ml of fatty acid-free bovine serum albumin and 10 mM HEPES. After stimulation, the supernatant was taken for PGE2 or NO quantification and for detection of secreted IIA-sPLA2. The cell monolayers were homogenized in lysis buffer and processed exactly as previously described (Huwiler et al., 2006). Cell lysates were taken for protein determination. Lysates containing equal amounts of protein, were separated by sodium dodecylsulfate-polyacrylamide gel electrophoresis (SDS-PAGE), transferred to nitrocellulose membranes and subjected for Western blot analysis using antibodies as indicated in the figure legends. Bands were detected by enhanced chemiluminescence method as recommended by the manufacturer.

[3] = tested on: colon cancer cell line HCT-116; experiment: colony formation assay; format: cell-based, human; conditions: HCT-116, 10 days of treatment
Method: Cells were seeded at a density of 700 cells per 60 mm-diameter dish in growth medium. After 24 h, cells were treated with either vehicle (Co) or the indicated concentrations (in μM) of FTY720, myriocin (myrio), ST-968, and ST-1071, and further cultured for 10 days at 37° C. Thereafter, colonies were stained and quantified as described in the Methods Section. […] Rat renal mesangial cells were isolated, characterized, and cultured as previously described (Pfeilschifter et al., 1984). For the experiments performed in this study, cells between passages 8-30 were used. The human endothelial cell line EA.hy 926 was cultured in RPMI medium containing 10% (v/v) fetal bovine serum, 10 mM Hepes, pH 7.4, 100 units/ml penicillin, and 100 μg/ml streptomycin. HCT-116 colon carcinoma cells were cultured in McCoy medium including 10% (v/v) fetal bovine serum, 100 units/ml penicillin, and 100 μg/ml streptomycin. Prior to stimulation, all cells were rendered quiescent for 24 h in DMEM including 0.1 mg/ml of fatty acid-free bovine serum albumin (BSA). Cells were subcultured in 60 mm-diameter dishes at a density of 700 cells per dish. After 24 h, cells were treated with the indicated concentrations of the different compounds in growth medium and incubated for further 10 days to allow colony formation. Cells were then washed with PBS, air dried, and stained for 30 min with 2% (w/v) crystal violet, washed with water and air dried again. The number of colonies was quantified using a ColCount™ (Mammalian Cell Colony Counter, Oxford Optronix, Oxford, U.K.). Only colonies containing more than 50 cells were evaluated.

[4] = tested on: p42/44-MAPK phosphorylation in EA.hy 926 cells; experiment: MAPK/ERK phosphorylation in the endothelial cell line EA.hy 926, Western blot; format: cell-based, human; conditions: 1 μM
Method: Confluent EA.hy 926 cells were treated either for 10 min (left side) or for 4 h (right side) with either vehicle (Co), S1P (1 μM), or ST-968 (1 μM). Thereafter, cell lysates containing 30 μg of protein were separated by SDS-PAGE, transferred to nitrocellulose and subjected to Western blot analysis using antibodies against phospho-ERK½ (dilution of 1:1000; A, upper panel), and total p42/ERK2 and p44/ERK1(dilutions each 1:6000; B, lower panel). Blots were stained by the ECL method according to the manufacturer's recommendation. Bands corresponding to the phospho-ERKs were densitometrically evaluated and results are depicted as % of control and are means ±S.D. ([…]).
as §1
as §2, with “Lysates containing equal amounts of protein, were separated by sodium dodecylsulfate-polyacrylamide gel electrophoresis (SDS-PAGE), transferred to nitrocellulose membranes and subjected for Western blot analysis using antibodies as indicated in the figure legends.” left out

EA.hy 926 cells = experiment: serum-stimulated migration of endothelial cells, adapted Boyden chamber assay; format: cell-based, human; conditions: 10% serum, 6 h, at 3 μM and 10 μM
Method: Serum-starved EA. by 926 cells in 8 μM-polycarbonate inserts were treated for 6 h with 10% serum in the absence or presence of the indicated concentrations of ST-968 or ST-1071. Migrated cells were stained with DAPI and counted in a fluorescence microscop.
EA.hy 926 cells were cultured for 24 h under serum-free conditions. Chemotaxis was measured in Cell Culture Inserts (polycarbonate-coated membranes, […] pore size). The lower compartment was filled with serum-free DMEM and 1.7×10^5 cells were seeded per insert in the absence or presence of the indicated stimuli and inhibitors. After the indicated time periods, non-migrated cells were mechanically removed from the membrane and cells that had migrated into the membrane were fixed in 4% paraformaldehyde in PBS and stained with lug/ml of 4′,6-diamidino-2-phenylindole (DAPI). DAPI-stained cells were counted using a fluorescence microscope. Each data point is the average number of cells in five random fields and is the mean of four individual wells.

[5] = tested on: secretory phospholipase A2 (sPLA2) expression; experiment: cytokine-triggered secretory phospholipase A2 expression in renal mesangial cells, Western blot; format: cell-based, rat; conditions: IL-1β 1 nM plus forskolin 10 μM, 24 h, increasing doses of ST-968
Method: Cells were treated for 24 h with either vehicle (−, 0) or with interleukin 1 β (1 nM) plus forskolin (10 μM) (IL-1/Fk, +) in the absence (0) or presence of the indicated concentrations of ST-968. Thereafter, supernatants were collected and equal volumes were taken for protein precipitation using trichloroacetic acid. Equal aliquots were separated by SDS-PAGE, transferred to nitrocellulose and subjected to Western blot analysis using a monoclonal antibody against rat sPLA2 at a dilution of 1:60. Blots were stained by the ECL method according to the manufacturer's recommendation. Data are representative of two independent experiments giving similar results.
as §2, with “Lysates containing equal amounts of protein, were separated by sodium dodecylsulfate-polyacrylamide gel electrophoresis (SDS-PAGE), transferred to nitrocellulose membranes and subjected for Western blot analysis using antibodies as indicated in the figure legends.” left out, “manufacturer. […]” for “manufacturer.”

[6] = tested on: nitric oxide (NO) formation; experiment: cytokine-triggered nitric oxide release from renal mesangial cells, Griess reagent; format: cell-based, rat; conditions: IL-1β 1 nM plus forskolin 10 μM, 24 h
Method: Cells were treated for 24 h with either vehicle (−) or with interleukin 1 β (1 nM) plus forskolin (10 μM) (IL-1/Fk, +) in the absence or presence of the indicated concentrations of ST-968 (in μM), or betamethasone (in nM). Thereafter, supernatants were collected and nitrite was quantified by using the Griess reagent.
Quiescent mesangial cells in 24-well plates were stimulated as indicated, and the supernatants were taken for nitrite determination using Griess reagent as described (Green et al., 1982).

CCCCCCCCc1ccc(CC[C@](N)(CO)COP(=O)(O)O)cc1 [FTY720-P, FTY720-1-phosphate]
growth inhibition [1]: did not inhibit the growth
growth of MCF-7 cells (MCF-7 cells): slightly induced the growth

CCCCCCCCc1cccc(NC(=O)[C@H](N)COP(=O)(O)O)c1 [VPC23019, reference compound]
effect on ST-968-induced p42/44 activation [2]: completely abolished

CCCCCCCCc1ccc(CCC(N)(CO)CO)cc1.Cl [FTY720, 2-Amino-2[2-(4-octylphenyl)ethyl]propane-1,3-diol, reference compound]
growth inhibition [1]: significant growth inhibition
colony formation [3]: completely abolished colony formation

CCCCCCC(=O)CCCCCC/C=C/C[C@@H](O)[C@H](O)[C@@](N)(CO)C(=O)O [myriocin, reference compound]
colony formation [3]: had no effect

CCCCCCc1cccc(NC(=O)[C@H](N)CCP(=O)(O)O)c1 [W146, (R)-3-amino-(3-hexylphenylamino)-4-oxobutylphosphonic acid, reference compound]
effect on ST-968-induced p42/44 activation [2]: had no effect

CCCCCCCCCCCCC/C=C/[C@@H](O)[C@H](CO)N(C)C [dimethylsphingosine]
effect of the combination on the inhibitory effect of FTY720 ([1]; combined with FTY720, Nagaoka et al. 2008): augmented the inhibitory effect of FTY720

CCCCCCCCCCCCC/C=C/[C@@H](O)[C@@H](N)CO [sphingosine]
growth inhibition [1]: significant growth inhibition

CCCCCCCCCCCCC/C=C/[C@@H](O)[C@@H](N)COP(=O)(O)O [S1P, sphingosine-1-phosphate]
growth inhibition [1]: did not inhibit the growth
growth of MCF-7 cells (MCF-7 cells): slightly induced the growth
p42/44 phosphorylation, S1P compared with ST-968 ([4]; 10 min of stimulation): more potent to increase p42/44 phosphorylation than ST-968

CCCCCCCCc1ccc(CCC23COCN2COC3)cc1 [ST-968, 7a-(4-Octylphenethyl)Tetrahydro-1H-Oxazolo[3,4-c]Oxazole]
serum-stimulated migration (EA.hy 926 cells): able to reduce serum-stimulated migration
colony formation [3]: strongly reduced colony formation
colony formation ([3]; listed as ST 968): inhibited and/or reduced the colony formation
agonistic potential on S1P receptors [2]: have agonistic potential on one or several of the S1P receptors
agonistic potential on S1P receptors ([2]; listed as ST 968): exhibited agonistic potential for one or several of the S1P receptor subtypes
p42/44 phosphorylation (p42/44-MAPK activity) [2]: increased p42/44 phosphorylation
sPLA2 expression [5]: reduced
IL-1β/forskolin induced NO formation [6]: dose-dependently reduced
activation of the p42/44-MAPK cascade [4]: could activate the p42/44-MAPK cascade
p42/44 phosphorylation, ST-968 compared with S1P ([4]; 4 h of stimulation): more potently increasing p42/44 phosphorylation than S1P

pertussis toxin [reference compound]
effect on ST-968-induced p42/44 activation [2]: only partially blocked

CCCCCCCOc1ccc(CCC23COCN2COC3)cc1 [ST-1071, 7a-(4-(Heptyloxy)Phenethyl)Tetrahydro-1H-Oxazolo[3,4-c]Oxazole]
serum-stimulated migration (EA.hy 926 cells): able to reduce serum-stimulated migration
colony formation [3]: strongly reduced colony formation
colony formation ([3]; listed as ST 1071): inhibited and/or reduced the colony formation
agonistic potential on S1P receptors [2]: have agonistic potential on one or several of the S1P receptors
agonistic potential on S1P receptors ([2]; listed as ST1071): exhibited agonistic potential for one or several of the S1P receptor subtypes
p42/44 phosphorylation (p42/44-MAPK activity) [2]: stimulated p42/44 phosphorylation after 10 min in a concentration-dependent manner
potency on p42/44 phosphorylation compared with S1P ([2]; renal mesangial cells, 10 min): less potent than S1P
